The values below come from US20070293484A1, “Thiophene Heteroaryl Amines” (SUGEN, INC., priority 2004, published 2007).

One experiment deals with T1, GST-Flk1 (Mus musculus, UniProt P35918).
T1 construct: GST-Flk1cd purified from sf9 recombinant baculovirus transformation (SUGEN, Inc.); host or cells: Sf9 insect cells (recombinant baculovirus)
Kind of experiment: GST-FLK-1 bioassay (ELISA, tyrosine kinase activity on poly(glu,tyr)). In kind it is biochemical. As to the method:
The assays described herein are performed in an ELISA (Enzyme-Linked Immunosorbent Sandwich Assay) format (Voller, et al., 1980, “Enzyme-Linked Immunosorbent Assay,” Manual of Clinical Immunology, 2d ed., Rose and Friedman, Am. Soc. Of Microbiology, Washington, D.C., pp. 359-371). The general procedure is as follows: a compound is introduced to cells expressing the test kinase, either naturally or recombinantly, for a selected period of time after which, if the test kinase is a receptor, a ligand known to activate the receptor is added. The cells are lysed and the lysate is transferred to the wells of an ELISA plate previously coated with a specific antibody recognizing the substrate of the enzymatic phosphorylation reaction. Non-substrate components of the cell lysate are washed away and the amount of phosphorylation on the substrate is detected with an antibody specifically recognizing phosphotyrosine compared with control cells that were not contacted with a test compound.
This assay analyzes the tyrosine kinase activity of GST-Flk1 on poly(glu,tyr) peptides.
• 1. Corning 96-well ELISA plates (Corning Catalog No. 5805-96). • 2. poly(glu,tyr) 4:1, lyophilizate (Sigma Catalog #P0275). • 3. Preparation of poly(glu,tyr)(pEY) coated assay plates: Coat 2 ug/well of poly(glu,tyr)(pEY) in 100 μL PBS, hold at room temperature for 2 hours or at 4° C. overnight. Cover plates well to prevent evaporation. • 4. PBS Buffer: for 1 L, mix 0.2 g KH2PO4, 1.15 g Na2HPO4, 0.2 g KCl and 8 g NaCl in approx. 900 ml dH2O. When all reagents have dissolved, adjust the pH to 7.2 with HCl. Bring total volume to 1 L with dH2O. • 5. PBST Buffer: to 1 L of PBS Buffer, add 1.0 ml Tween-20. • 6. TBB—Blocking Buffer: for 1 L, mix 1.21 g TRIS, 8.77 g NaCl, 1 ml TWEEN-20 in approximately 900 ml dH2O. Adjust pH to 7.2 with HCl. Add 10 g BSA, stir to dissolve. Bring total volume to 1 L with dH2O. Filter to remove particulate matter. • 7. 1% BSA in PBS: To make a 1× working solution, add 10 g BSA to approx. 990 ml PBS buffer, stir to dissolve. Adjust total volume to 1 L with PBS buffer, filter to remove particulate matter. • 8. 50 mM Hepes pH 7.5. • 9. GST-Flk1cd purified from sf9 recombinant baculovirus transformation (SUGEN, Inc.). • 10. 4% DMSO in dH2O. • 11. 10 mMATP in dH2O. • 12. 40 mM MnCl2 • 13. Kinase Dilution Buffer (KDB): mix 10 ml Hepes (pH 7.5), 1 ml 5M NaCl, 40 μL 100 mM sodium orthovanadate and 0.4 ml of 5% BSA in dH2O with 88.56 ml dH2O. • 14. NUNC 96-well V bottom polypropylene plates, Applied Scientific Catalog #AS-72092 • 15. EDTA: mix 14.12 g ethylenediaminetetraacetic acid (EDTA) to approx. 70 ml dH2O. Add 10 N NaOH until EDTA dissolves. Adjust pH to 8.0. Adjust total volume to 100 ml with dH2O. • 16. 1^0 Antibody Dilution Buffer: mix 10 ml of 5% BSA in PBS buffer with 89.5 ml TBST. • 17. Anti-phosphotyrosine monoclonal antibody conjugated to horseradish peroxidase (PY99 HRP, Santa Cruz Biotech). • 18. 2,2′-Azinobis(3-ethylbenzthiazoline-6-sulfonic acid (ABTS, Moss, Cat. No. ABST). • 19. 10% SDS. Procedure: • 1. Coat Corning 96-well ELISA plates with 2 μg of polyEY peptide in sterile PBS as described in step 3 of Materials and Reagents. • 2. Remove unbound liquid from wells by inverting plate. Wash once with TBST. Pat the plate on a paper towel to remove excess liquid. • 3. Add 100 μl of 1% BSA in PBS to each well. Incubate, with shaking, for 1 hr. at room temperature. • 4. Repeat step 2. • 5. Soak wells with 50 mM HEPES (pH7.5) (150 μl/well). • 6. Dilute test compound with dH2O/4% DMSO to 4 times the desired final assay concentration in 96-well polypropylene plates. • 7. Add 25 μl diluted test compound to ELISA plate. In control wells, place 25 μl of dH2O/4% DMSO. • 8. Add 25 μl of 40 mM MnCl2 with 4×ATP (2 μM) to each well. • 9. Add 25 μl 0.5M EDTA to negative control wells. • 10. Dilute GST-Flk1 to 0.005 μg (5 ng)/well with KDB. • 11. Add 50 μl of diluted enzyme to each well. • 12. Incubate, with shaking, for 15 minutes at room temperature. • 13. […]

A further experiment has as its target T2, PDGFR (Homo sapiens, UniProt P09619).
T2 construct: SUGEN, Inc; host or cells: NIH 3T3 cell lysate; receptor captured on plate with monoclonal anti-PDGFR antibody 28D4C10
Kind of experiment: PDGFR bioassay (ELISA, in vitro kinase activity). As to conditions: PDGFR-β expressing NIH 3T3 cell lysate; read-out: IC50 (μM) PDGF-R. In kind it is biochemical. On the technique in general: An ELISA detects its analyte on a solid surface through an enzyme-linked reagent.

Some results are limits rather than exact numbers.

T2 sequence (P09619 33-1106, species assumed): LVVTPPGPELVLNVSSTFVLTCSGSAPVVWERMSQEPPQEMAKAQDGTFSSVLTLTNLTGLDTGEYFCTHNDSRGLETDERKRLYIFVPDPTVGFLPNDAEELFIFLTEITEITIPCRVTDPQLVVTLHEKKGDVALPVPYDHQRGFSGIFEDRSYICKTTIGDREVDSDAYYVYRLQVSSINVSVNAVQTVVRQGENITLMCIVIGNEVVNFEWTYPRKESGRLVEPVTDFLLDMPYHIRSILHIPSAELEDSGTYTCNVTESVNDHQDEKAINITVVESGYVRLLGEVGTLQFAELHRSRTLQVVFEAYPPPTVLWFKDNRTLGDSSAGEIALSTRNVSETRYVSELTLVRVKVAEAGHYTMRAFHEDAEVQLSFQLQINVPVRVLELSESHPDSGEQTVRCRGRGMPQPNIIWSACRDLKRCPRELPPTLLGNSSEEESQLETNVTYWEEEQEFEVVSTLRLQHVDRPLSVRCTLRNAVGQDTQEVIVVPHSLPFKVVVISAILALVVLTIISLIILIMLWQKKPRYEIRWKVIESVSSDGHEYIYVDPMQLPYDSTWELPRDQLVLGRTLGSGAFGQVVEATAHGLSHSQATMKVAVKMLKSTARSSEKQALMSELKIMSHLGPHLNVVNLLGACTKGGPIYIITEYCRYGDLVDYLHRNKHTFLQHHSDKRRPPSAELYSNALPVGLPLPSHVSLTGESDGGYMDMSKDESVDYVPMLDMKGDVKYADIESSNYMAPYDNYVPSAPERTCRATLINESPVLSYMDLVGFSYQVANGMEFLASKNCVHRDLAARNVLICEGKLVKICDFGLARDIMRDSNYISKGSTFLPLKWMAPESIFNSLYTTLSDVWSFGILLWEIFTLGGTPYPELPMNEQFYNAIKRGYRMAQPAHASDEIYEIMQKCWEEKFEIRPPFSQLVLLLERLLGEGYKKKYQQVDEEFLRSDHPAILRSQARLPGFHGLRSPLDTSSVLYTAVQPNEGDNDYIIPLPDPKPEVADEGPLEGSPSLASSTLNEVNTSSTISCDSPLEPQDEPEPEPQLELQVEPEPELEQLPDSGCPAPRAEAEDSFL
T1 sequence (P35918 784-1345 limits assumed): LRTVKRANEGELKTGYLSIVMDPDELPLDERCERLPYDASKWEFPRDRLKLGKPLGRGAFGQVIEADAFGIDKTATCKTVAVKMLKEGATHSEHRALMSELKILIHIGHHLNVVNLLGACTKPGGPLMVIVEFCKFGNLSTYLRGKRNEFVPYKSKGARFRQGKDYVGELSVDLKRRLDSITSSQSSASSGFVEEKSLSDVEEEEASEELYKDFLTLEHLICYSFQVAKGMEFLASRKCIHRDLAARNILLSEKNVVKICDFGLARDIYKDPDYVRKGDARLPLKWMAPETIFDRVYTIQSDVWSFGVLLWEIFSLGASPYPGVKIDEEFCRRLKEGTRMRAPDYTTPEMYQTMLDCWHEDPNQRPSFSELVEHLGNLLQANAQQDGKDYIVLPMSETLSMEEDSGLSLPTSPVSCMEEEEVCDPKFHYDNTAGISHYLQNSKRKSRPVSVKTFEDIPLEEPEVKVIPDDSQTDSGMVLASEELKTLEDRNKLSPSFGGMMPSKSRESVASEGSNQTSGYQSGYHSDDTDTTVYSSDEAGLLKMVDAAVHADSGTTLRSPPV

What is called IC50 is the concentration needed to halve the response being measured. For `O=C(Nc1ccc(F)cc1)Nc1ncc(-c2ccsc2)cn1` [Example 10, N-(4-fluorophenyl)-N′-(5-thien-3-ylpyrimidin-2-yl)urea], the IC50 against GST-Flk1 and on PDGFR was more than 20 µM each time.
`CCN(CC)CCNCC(=O)Nc1cccc(Nc2ncc(-c3ccsc3)cn2)c1` [Example 57, 2-(2-diethylamino-ethylamino)-N-[3-(5-thiophen-3-yl-pyrimidin-2-ylamino)-phenyl]-acetamide]: the half-inhibitory concentration (IC50) against GST-Flk1 amounted to 3.1 µM; at PDGFR, 0.23 µM.
In the case of `CC(=O)Nc1cccc(Nc2ncc(-c3ccsc3)cn2)c1` [Example 36, N-{3-[(5-thien-3-ylpyrimidin-2-yl)amino]phenyl}acetamide], the IC50 came to 3.5 µM on GST-Flk1 and 0.66 µM at PDGFR.
The like results for `CCN(CC)CC(=O)Nc1cccc(Nc2cnc(-c3ccsc3)cn2)c1` [Example 41, N-(3-(5-(thiophen-3-yl)pyrazin-2-ylamino)phenyl)-2-(diethylamino)acetamide] were, in that order, more than 20 µM and more than 20 µM.
For `O=C(NCCN1CCOCC1)Nc1cccc(Nc2ncc(-c3ccsc3)cn2)c1` [Example 49], the IC50 was found to be 1.9 µM against GST-Flk1 and 0.14 µM at PDGFR.
The like results for `CN1CCN(C(=O)Nc2ccc(Nc3ncc(-c4ccsc4)cn3)cc2)CC1` [Example 35, 4-methyl-N-{4-[(5-thien-3-ylpyrimidin-2-yl)amino]phenyl}piperazine-1-carboxamide] were, in that order, 5.4 µM and 0.47 µM.
The like results for `Nc1ccc(Nc2ncc(-c3ccsc3)cn2)cc1` [Example 8, N-(5-thien-3-ylpyrimidin-2-yl)benzene-1,4-diamine] were, in that order, 4.14 µM and 0.55 µM.
The like results for `CCN(CC)CCNC(=O)Nc1ccc(Nc2ncc(-c3ccsc3)cn2)cc1` [Example 32, N-[2-(diethylamino)ethyl]-N′-{4-[(5-thien-3-ylpyrimidin-2-yl)amino]phenyl}urea] were, in that order, 5.7 µM and 0.53 µM.
In the case of `O=C(Nc1cccc(Nc2ncc(-c3ccsc3)cn2)c1)N1CCC(N2CCCC2)CC1` [Example 54, 4-pyrrolidin-1-yl-piperidine-1-carboxylic acid [3-(5-thiophen-3-yl-pyrimidin-2-ylamino)-phenyl]-amide], the IC50 worked out at 2.3 µM on GST-Flk1 and 0.18 µM on PDGFR.
For `O=C(Nc1ccc(Nc2ncc(-c3ccsc3)cn2)cc1)N1CCC(N2CCCC2)CC1` [Example 30, 4-pyrrolidin-1-yl-N-{4-[(5-thien-3-ylpyrimidin-2-yl)amino]phenyl}piperidine-1-carboxamide] the same measures were 6.2 µM and 0.5 µM.
On to `COc1ccc(NC(=O)Nc2ncc(-c3ccsc3)cn2)cc1` [Example 9, N-(4-methoxyphenyl)-N′-(5-thien-3-ylpyrimidin-2-yl)urea], for which the IC50 against GST-Flk1 and on PDGFR was more than 20 µM each time.
Turning to `O=C(CNCC(O)CN1CCOCC1)Nc1cccc(Nc2ncc(-c3ccsc3)cn2)c1` (centres unmarked) [Example 59, 2-(2-hydroxy-3-morpholin-4-yl-propylamino)-N-[3-(5-thiophen-3-yl-pyrimidin-2-ylamino)-phenyl]-acetamide], the IC50 stood at 2.7 µM against GST-Flk1 and 0.09 µM on PDGFR.
For `CCN(CC)c1cccc(Nc2ncc(-c3ccsc3)cn2)c1` [Example 38, N,N-diethyl-N′-(5-thien-3-ylpyrimidin-2-yl)benzene-1,3-diamine] the same measures were 3 µM and 1.8 µM.
For `CCN(CC)CC(=O)Nc1ccc(Nc2ncc(-c3ccsc3)cn2)cc1` [Example 27, N-(4-(5-(thiophen-3-yl)pyrimidin-2-ylamino)phenyl)-2-(diethylamino)acetamide] the same measures were 6 µM and 0.55 µM.
The like results for `Cc1ccc(Nc2ncc(-c3ccsc3)cn2)cc1NC(=O)c1ccc(CN2CCN(C)CC2)cc1` [Example 40, 4-(4-methyl-piperazin-1-ylmethyl)-N-[2-methyl-5-(5-thiophen-3-yl-pyrimidin-2-ylamino)-phenyl]-benzamide] were, in that order, 10 µM and 2.6 µM.
In the case of `COc1ccc(Nc2ncc(-c3ccsc3)cn2)cc1` [Example 5, N-(4-methoxyphenyl)-5-thien-3-ylpyrimidin-2-amine], the IC50 was more than 20 µM on GST-Flk1 and 0.55 µM at PDGFR.
On to `O=C(CN1CCOCC1)Nc1cccc(Nc2ncc(-c3ccsc3)cn2)c1` [Example 61, 2-morpholin-4-yl-N-[3-(5-thiophen-3-yl-pyrimidin-2-ylamino)-phenyl]-acetamide], for which the IC50 against GST-Flk1 is 2.5 µM; at PDGFR, 0.94 µM.
The like results for `Nc1cccc(Nc2ncc(-c3ccsc3)cn2)c1` [Example 6, N-(5-thien-3-ylpyrimidin-2-yl)benzene-1,3-diamine] were, in that order, 1.53 µM and 0.06 µM.
In the case of `O=C(CN1CCOCC1)Nc1cccc(Nc2cnc(-c3ccsc3)cn2)c1` [Example 42, 2-morpholin-4-yl-N-{3-[(5-thien-3-ylpyrazin-2-yl)amino]phenyl}acetamide], the 50% inhibitory concentration (IC50) against GST-Flk1 and on PDGFR was more than 20 µM in each case.
As to `CCN(CC)CCNC(=O)Nc1cccc(Nc2ncc(-c3ccsc3)cn2)c1` [Example 50], the IC50 at GST-Flk1 was determined as 1.7 µM; on PDGFR, 0.16 µM.
As to `Oc1ccc(Nc2ncc(-c3ccsc3)cn2)cc1` [Example 1, 4-[(5-thien-3-ylpyrimidin-2-yl)amino]phenol], the IC50 against GST-Flk1 came out at 4.5 µM; at PDGFR it was 0.52 µM.
For `c1cc(-c2cnc(Nc3ccc(N4CCOCC4)cc3)nc2)cs1` [Example 3, N-(4-morpholin-4-ylphenyl)-5-thien-3-ylpyrimidin-2-amine] the same measures were more than 20 µM and 0.15 µM.
The like results for `O=C(CNCCN1CCS(=O)(=O)CC1)Nc1cccc(Nc2ncc(-c3ccsc3)cn2)c1` [Example 60, 2-[2-(1,1-dioxo-1λ^6-thiomorpholin-4-yl)-ethylamino]-N-[3-(5-thiophen-3-yl-pyrimidin-2-ylamino)-phenyl]-acetamide] were, in that order, 2.4 µM and 0.06 µM.
For `CN1CCN(CC(=O)Nc2ccc(Nc3ncc(-c4ccsc4)cn3)cc2)CC1` [Example 23, 2-(4-methylpiperazin-1-yl)-N-{4-[(5-thien-3-ylpyrimidin-2-yl)amino]phenyl}acetamide] the same measures were 5.1 µM and 0.55 µM.
As to `CN1CCN(CCNC(=O)Nc2cccc(Nc3ncc(-c4ccsc4)cn3)c2)CC1` [Example 53, 1-[2-(4-methyl-piperazin-1-yl)-ethyl]-3-[3-(5-thiophen-3-yl-pyrimidin-2-ylamino)-phenyl]-urea], the IC50 against GST-Flk1 amounted to 2.3 µM; on PDGFR, 0.22 µM.
